Measurements as given in patent publication US7192614B2, “Compositions and methods of treatment to alleviate or prevent migrainous headaches and their associated symptoms” (GelStat Corporation, priority 2002, dated 2007).

Assays:
migraine headache = assay: Individual case reports, acute sublingual treatment of migraine headache (Examples 1-8, 10); format: in vivo, human; details: single subject
Protocol: A person in otherwise good health had suffered for years with consistently recurring migraine headaches, frequency approximately 1–3 times per month, average duration 4–12 hours, which headaches had proven refractory to standard pharmacological treatment. These migraine headaches were often accompanied by nausea, and infrequently by vomiting. Each occurrence of migraine headache rendered the individual unable to participate in the normal activities of daily living, both socially and professionally. Absenteeism from work and missed social engagements resulted from their frequent need to ensconce themself in a darkened, quiet room where they would ‘wait out’ the headache. The frequency and unpredictability of the migraine headaches caused substantial impairment even between events, this impairment associated with anxiety and the inability to plan any event with confidence. This individual used the present invention in a two (2) part sublingual administration regimen, wherein a first composition is administered sublingually, and allowed to reside under the tongue for a period of about sixty (60) seconds. A second identical composition is administered, following the start of administration of the first composition by approximately five (5) minutes. […]

migraine = details: cited from earlier work
[1] = 5 mg, placebo-controlled 2-attack study
[2] = doses > or = 2.5 mg, Rapoport 1997

SMILES | subject-reported side effects (migraine headache) | subject-reported relief of migraine headache and associated symptoms (migraine headache; two part sublingual regimen) | 1 Hour headache response (migraine; Table 2, literature values) | 2 Hour complete headache response (migraine; Table 2, literature values) | 2 Hour headache response (migraine; Table 2, literature values) | 2 hour pain free (migraine; Table 2, literature values) | pain free at 2 hours postdose (migraine; 5 mg) | pain-free response at 1 hour postdose (migraine; 5 mg) | sustained pain-free response at 24 hours (migraine; 5 mg) | headache response at 30 minutes (migraine; [1]) | headache response at 2 hours (migraine; [1]) | 2 hour sustained pain free (migraine; Table 2, literature values) [%^9] | headache response rate at 1 hour (migraine; [2]) [%] | headache response rate at 2 hours (migraine; [2]) [%]
CNS(=O)(=O)Cc1ccc2[nH]cc(CCN(C)C)c2c1 [Sumatriptan] | “weakness” and “exhaustion” | moderate success | 20% | 36% | 59% | 29% | – | – | – | – | – | – | – | –
CN(C)CCc1c[nH]c2ccc(C[C@H]3COC(=O)N3)cc12 [Zolmitriptan] | – | – | 44%^1 | 40–45%^6,7 | 66%^2,3,4 | 27–33%^8 | 31.1 % of attacks | 10.6 % of attacks | ^9Among attacks treated with ZOMIG-ZMT 5 mg, a sustained pain-free response at 24 hours was achieved in 22.2% of attacks compared to 8.2% for placebo (P < .0001)^1 also unpublished data, see same web address as for #5 | 16.5 % of attacks | 59 % of attacks | 31 | 44 to 51 | 65 to 67
